Reference: patent publication EP0944628B1, “HETERO-BIARYL-PYRIDOQUINAZOLINONE DERIVATIVES AS ANTI-CANCER AGENTS” (American Cyanamid Company, priority 1996, dated 1998)
≈ marks a conversion by molar mass, not a printed value.

Assays:
[1] = tested on: Colon 26 Advanced, Metastatic Tumor; experiment: Murine Colon 26 advanced, metastatic tumor, increase in mean life span; assay type: in vivo, CD2F1 mice; settings: days 5,9,13
Experimental: (§1) CD2F1 mice are injected i.p. with 5 x 10^5 tumor cells on Day 0 of the test. Drugs are administered i.p. on Days 5, 9, and 13 after the tumor implantation. Positive drug response is indicated by a more than 25% increase in the mean life span (% ILS), relative to placebo treated controls. Drugs are considered to be toxic when the mean life span of the drug treated animals is more than 15% shorter than placebo treated controls.

A2780 DDP cells = experiment: Two cell line test procedure, in vitro cytotoxicity (sulforhodamine B), A2780 DDP; assay type: cell-based; settings: Homo sapiens; A2780 DDP cells (cisplatin-resistant), 48 hours exposure
Experimental: (§2) A2780 S and A2780 DDP cells [Biochemical and Molecular Properties of Cisplatin-resistant A2780 Cells Grown in Folinic Acid; Y. Lu, J. Hnan, and K. Scanlon, J. Biol. Chem., 263, 4891-4894, 1988.] are grown in RPMI 1640 medium containing 5% fetal calf serum, 50 µg/ml streptomycin, 50 units/ml penicillin, 50 µg/ml gentamycin, 0.03% L-glutamine, 1 nM estradiol, 1 nM testosterone, 5 µg/ml insulin, 5 µg/ml transferrin, and 5 ng/ml selenous acid, at 37°C, in a humidified atmosphere, containing 5% CO2. Experiments are done in the same media.
(§3) Cells are plated at the concentration of 5 x 10^4/ml on Day 0 of the experiment. On Day one cells are fixed with trichloroacetic acid and 5 ten-fold dilutions of tested compounds are added, in duplicates, to the remaining cells. On Day 3 (48 hours exposure to drugs) all cells are fixed with trichloroacetic acid, stained with 0.4% sulforhodamine B, and absorbency is read at 520 nm. The IC50 (concentration causing 50% inhibition) are determined for each drug.

P388 Leukemia = experiment: Murine P388 leukemia, increase in mean life span; assay type: in vivo, CD2F1 mice; settings: days 1,5,9
Experimental: as §1, with “with 1” for “with 5”, “x 10^6” for “x 10^5”, “Days 1,” for “Days”, “5,” for “5, 9,”, “and 9” for “and 13”

A2780 S cells = experiment: Two cell line test procedure, in vitro cytotoxicity (sulforhodamine B), A2780 S; assay type: cell-based; settings: Homo sapiens, A2780S, 48 hours exposure
Experimental: as §2, §3

P388 = settings: literature report; cited from earlier work

SMILES | % ILS ([1]; COLON 26, dose 100 mg/kg i.p.) | % ILS ([1]; COLON 26, dose 200 mg/kg i.p.) | % ILS ([1]; COLON 26, dose 300 mg/kg i.p.) | IC50 (A2780 DDP cells) [µg/mL] | % ILS (P388 Leukemia; P388, dose 50 mg/kg i.p.) | % ILS (P388 Leukemia; P388, dose 100 mg/kg i.p.) | % ILS (P388 Leukemia; P388, dose 200 mg/kg i.p.) | IC50 (A2780 S cells) [µg/mL] | also measured
COc1cccc2c1C(=O)c1c(O)c3c(c(O)c1C2=O)C[C@@](O)(C(=O)CO)C[C@@H]3O[C@H]1C[C@H](N)[C@H](O)[C@H](C)O1 [Adriamycin, reference compound] |  |  |  |  |  |  |  |  | % ILS ([1]; COLON 26, dose 4 mg/kg i.p.): +70%
CN(C)CCNC(=O)c1cccn2c(=O)c3cc(-c4cccnc4)ccc3nc12 [Example 06, N-[2-(Dimethylamino)ethyl]-11-oxo-2-(3-pyridinyl)-11H-Pyrido-[2,1-b]quinazoline-6-carboxamide] | +9% | +15% | +21% | 5 (≈ 12.9 µM) | +16% | +22% | +47% | 0.9 (≈ 2.32 µM) | 
CN(C)CCNC(=O)c1cccn2c(=O)c3cc(-c4ccncc4)ccc3nc12 [Example 07, N-[2-(Dimethylamino)ethyl]-11-oxo-2-(4-pyridinyl)-11H-pyrido-[2,1-b]quinazoline-6-carboxamide] | -15% | -52% | -58% | 5.6 (≈ 14.5 µM) | +20% | +29% | +49% | 0.7 (≈ 1.81 µM) | 
O=C(NCCN1CCCC1)c1cccn2c(=O)c3cc(-c4ccncc4)ccc3nc12 [Example 08, 11-Oxo-2-(4-pyridinyl)-N-[2-(1-pyrrolidinyl)ethyl]-11H-pyrido-[2,1-b]quinazoline-6-carboxamide] |  |  |  | 3.7 (≈ 8.95 µM) |  |  |  | 0.8 (≈ 1.93 µM) | 
CN(C)CCNC(=O)c1cccn2c(=O)c3cc(-c4cnc5ccccc5c4)ccc3nc12 [Example 10, N-[2-(Dimethylamino)ethyl]-11-oxo-2-(3-quinolinyl)-11H-pyrido[2,1-b]quinazoline-6-carboxamide] |  |  |  | 5.3 (≈ 12.1 µM) |  |  |  | 4.5 (≈ 10.3 µM) | 
CN(C)CCNC(=O)c1cccn2c(=O)c3ccc(-c4cccnc4)cc3nc12 [Example 15, N-[2-(Dimethylamino)ethyl]-11-oxo-3-(3-pyridinyl)-11H-pyrido-[2,1-b]quinazoline-6-carboxamide] | +15% | +64% | -3% | 0.7 (≈ 1.81 µM) | +8% | +18% | +37% | 0.6 (≈ 1.55 µM) | 
CN(C)CCNC(=O)c1cccn2c(=O)c3ccc(-c4ccncc4)cc3nc12 [Example 16, N-[2-(Dimethylamino)ethyl]-11-oxo-3-(4-pyridinyl)-11H-pyrido-[2,1-b]quinazoline-6-carboxamide] |  |  |  | 8.6 (≈ 22.2 µM) |  |  |  | 7 (≈ 18.1 µM) | 
CN(C)CCNC(=O)c1cccn2c(=O)c3ccccc3nc12 [I, N-[2-(dimethylamino)ethyl]-11-oxo-11H-pyrido[2,1-b]quinalzoline-6-carboxamide] |  |  |  |  |  |  |  |  | activity in a P388 mouse model (P388): inactive
CC[C@]1(O)C[C@H]2CN(CCc3c([nH]c4ccccc34)[C@@](C(=O)OC)(c3cc4c(cc3OC)N(C=O)[C@H]3[C@@](O)(C(=O)OC)[C@H](OC(C)=O)[C@]5(CC)C=CCN6CC[C@]43[C@@H]65)C2)C1 [Vincristine, reference compound] |  |  |  |  |  |  |  |  | % ILS (P388 Leukemia; P388, dose 0.8 mg/kg i.p.): +114%
